From patent publication EP0206497B1, “Therapeutic nucleosides and their preparation” (priority 1985, dated 1986)

What was measured:
Type in all cases: cell-based
[1] = Cytotoxic effect against D-98 cells; conditions: human, 10⁻⁴ M, % growth relative to the control
Method: (§1) The following compounds were tested for cytotoxic effect at 10⁻⁴ M against human D-98 and mouse L cells. Figures shown are % growth relative to the control.

[2] = Cytotoxic effect against L cells; conditions: mouse, 10⁻⁴ M, % growth relative to the control
Method: as §1

[3] = tested on: friend leukaemia virus; assay: Retroviral activity against friend leukaemia virus; conditions: read-out: ED₅₀
Method: (§2) • a) Feline Leukaemia Virus Susceptible feline embryo lung fibroblasts (FLF-3) were seeded onto multiwell slides (10⁵ cells/ml, 0.05 ml/well) with Dulbecco-modified Eagle's essential medium (DME) and incubated at 37 °C overnight. Each of the 32 wells was then infected with 40-60 focus forming units (ffu) of feline leukaemia virus (FeLV) for one hour after which the medium was replaced with fresh DME with varying concentrations of 2,6-diaminopurine-9-β-D-2',3'-dideoxyribofuranoside per 4 wells. Concentrations were 0, 1.0, 10, 50, 100, 200 and 400 »M. After 3 days incubation at 37 °C, the cultures were assayed by the indirect fluorescent antigen test for the production of FeLV. […]. […] This protective effect was seen on both days 10 and 13 of the experiment. • c) Friend Leukaemia virus The compounds have been tested for retroviral activity against friend leukaemia virus with the following results.

[4] = tested on: HIV; assay: Block of HIV infection / cytopathic effect in cloned T4 positive T helper lymphocytes (cell survival); conditions: after 10 days in culture (protective effect seen on days 10 and 13), up to 5000 virions/cell, untreated infected cells 8-fold decreased
Method: as §2

[5] = tested on: feline leukaemia virus (FeLV); assay: Feline leukaemia virus production in infected FLF-3 fibroblasts, indirect fluorescent antigen test; conditions: FLF-3 cells; for inhibition: 3 days incubation
Method: as §2

SMILES	activity at 100 µM [1]	activity at 100 µM [2]	EC50 [3]	viral cytopathic effects in infected T cells ([4]; 2 »M)	viral cytopathic effects in infected T cells ([4]; 10 »M)	inhibition ([5]; 0.1 »M)	inhibition ([5]; 10 »M)	inhibition ([5]; 50 »M)	production of FeLV ([5]; concentrations of 100 »M and above, 3 days incubation at 37°C)
Nc1nc2c(ncn2[C@H]2CC[C@@H](CO)O2)c(=O)[nH]1 [2',3'-dideoxyguanosine, reference compound]	87%	93%	25.9 µM	–	–	–	–	–	–
Nc1nc(N)c2ncn([C@H]3CC[C@@H](CO)O3)c2n1 [2,6-Diaminopurine-9-β-D-2',3'-dideoxyribofuranoside]	97%	41%	22.4 µM	no viral cytopathic effects were seen	no viral cytopathic effects were seen	31%	45%	60%	Complete absence of FeLV
Nc1ncc2ncn([C@H]3CC[C@@H](CO)O3)c2n1 [2-Aminopurine-9-β-D-2',3'-dideoxyribofuranoside]	97%	107%	–	–	–	–	–	–	–
